The target in one assay is D(2) dopamine receptor (Rattus norvegicus, UniProt P61169). As to the kind of experiment: Inhibition of [3H]- spiperone binding to rat brain Dopamine receptor D2.
For assay [1], the target named is T1, Serotonin 3 (5-HT3) receptor (Rattus norvegicus, UniProt P35563+Q9JJ16).
T1 sequence (P35563 whole entry): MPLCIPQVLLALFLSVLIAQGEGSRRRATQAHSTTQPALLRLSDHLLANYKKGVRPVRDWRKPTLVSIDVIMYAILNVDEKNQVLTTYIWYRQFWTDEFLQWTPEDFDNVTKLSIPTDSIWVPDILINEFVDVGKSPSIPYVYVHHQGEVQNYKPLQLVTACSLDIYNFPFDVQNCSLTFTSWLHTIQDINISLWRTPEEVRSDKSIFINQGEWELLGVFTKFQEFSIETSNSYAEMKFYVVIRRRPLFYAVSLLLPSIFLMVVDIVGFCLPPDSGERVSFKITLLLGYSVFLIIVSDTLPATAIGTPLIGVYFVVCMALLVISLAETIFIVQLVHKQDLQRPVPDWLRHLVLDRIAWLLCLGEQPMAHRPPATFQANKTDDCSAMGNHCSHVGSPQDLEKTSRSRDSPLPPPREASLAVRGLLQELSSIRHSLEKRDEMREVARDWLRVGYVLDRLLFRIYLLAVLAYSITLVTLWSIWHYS
T1 sequence (Q9JJ16 whole entry): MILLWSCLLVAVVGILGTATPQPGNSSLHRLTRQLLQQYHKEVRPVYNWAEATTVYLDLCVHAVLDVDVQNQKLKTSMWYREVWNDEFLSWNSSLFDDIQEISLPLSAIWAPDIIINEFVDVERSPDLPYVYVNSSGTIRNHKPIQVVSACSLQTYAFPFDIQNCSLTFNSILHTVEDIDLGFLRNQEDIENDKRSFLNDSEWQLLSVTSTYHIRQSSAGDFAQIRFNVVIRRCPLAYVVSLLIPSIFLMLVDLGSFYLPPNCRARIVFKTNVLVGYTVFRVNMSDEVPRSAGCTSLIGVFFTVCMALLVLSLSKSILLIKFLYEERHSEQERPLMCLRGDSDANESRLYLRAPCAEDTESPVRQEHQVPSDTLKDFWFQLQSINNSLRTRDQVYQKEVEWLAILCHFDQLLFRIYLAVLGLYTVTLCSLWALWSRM
As to the kind of experiment: Inhibition of [3H]GR-65630 binding to rat cortical membrane 5-hydroxytryptamine 3 receptor.

Sequence of D(2) dopamine receptor (P61169 whole entry): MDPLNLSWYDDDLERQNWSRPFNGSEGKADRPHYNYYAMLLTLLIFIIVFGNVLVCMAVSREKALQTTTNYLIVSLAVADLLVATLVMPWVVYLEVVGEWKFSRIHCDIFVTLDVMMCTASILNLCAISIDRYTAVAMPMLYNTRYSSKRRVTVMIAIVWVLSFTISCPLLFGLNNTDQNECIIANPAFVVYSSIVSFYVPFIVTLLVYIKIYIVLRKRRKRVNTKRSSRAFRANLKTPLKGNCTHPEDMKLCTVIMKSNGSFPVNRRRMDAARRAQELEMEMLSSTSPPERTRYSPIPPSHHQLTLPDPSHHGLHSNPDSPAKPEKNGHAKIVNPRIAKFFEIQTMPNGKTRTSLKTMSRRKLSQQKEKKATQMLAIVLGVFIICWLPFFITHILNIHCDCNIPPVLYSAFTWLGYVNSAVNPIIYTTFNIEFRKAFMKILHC

As a reminder, the IC50 is the concentration at which inhibition is half-maximal. For `CCNc1nc(OC)c(C(=O)NC2CN(C)CCN(CC)C2)cc1Br` (stereo not drawn), the IC50 was 48 nM at D(2) dopamine receptor and 3.8 nM in assay [1]. On the same counts, the results for `CCN1CCN(C)CC(NC(=O)c2cc(Cl)c(N)nc2OC)C1` (stereo not drawn) are 386 nM and 5.1 nM. For `CCN1CCN(C)CC(NC(=O)c2cc(Br)c(N(C)C)nc2OC)C1` (stereo not drawn), the results for the IC50 (on D(2) dopamine receptor; in assay [1]) were 75 nM and 9.9 nM, respectively. On the same counts, the results for `CCNc1nc(OC)c(C(=O)NC2CN(C)CCN(CC)C2)cc1Cl` (stereo not drawn) are 76 nM and 2 nM. On the same counts, the results for `CCN1CCN(C)C[C@@H](NC(=O)c2cc(Cl)c(NC)nc2OC)C1` are 18 nM and 1.6 nM.

Turning to `CCN1CCN(C)CC(NC(=O)c2cc(Cl)c(NC)nc2OC)C1` (stereo not drawn), the IC50 on D(2) dopamine receptor is 43 nM; in assay [1], 1.3 nM. On the same counts, the results for `CCN1CCN(C)C[C@@H](NC(=O)c2cc(Cl)c(NC)cc2OC)C1` are 35 nM and 2.9 nM.

As for `CCN1CCN(C)C[C@H](NC(=O)c2cc(Br)c(NC)nc2OC)C1`, the IC50 on D(2) dopamine receptor was found to be 81 nM; in assay [1], 1.2 nM. On the same counts, the results for `CCN1CCN(C)CC(NC(=O)c2cc(Br)c(NC)nc2OC)C1` (stereo not drawn) are 23 nM and 1 nM. On the same counts, the results for `CCN1CCN(C)C[C@@H](NC(=O)c2cc(Br)c(NC)nc2OC)C1` are 12 nM and 1.1 nM. On the same counts, the results for `CCN1CCN(C)C[C@H](NC(=O)c2cc(Cl)c(NC)nc2OC)C1` are 202 nM and 2.1 nM. Regarding `CCN(CC)CCNC(=O)c1cc(Cl)c(N)cc1OC` [METOCLOPRAMIDE], the IC50 in assay [1] worked out at 880 nM.

For the origin of these results see ChEMBL document CHEMBL1131345, “Synthesis of N-(1-ethyl-4-methylhexahydro-1,4-diazepin-6-yl)nicotinamides and their affinities for 5-HT3 and dopamine D2 receptors” (Bioorg Med Chem Lett, 1998).
